Measurements from patent publication US10335488B2, “Method for treating cancer by photodynamic therapy” (D. R. NANO CO., LTD., priority 2014, dated 2019).

Columns and labels:
[1] = tested on: cancer cells MDA-MB-231, MCF-7, PC-3, HeLa, HT-29; normal cells MRC-5, clone 1-5c-4, NIH/3T3; experiment: Accumulation in cells by fluorescence microscopy; type: cell-based, human; mouse (NIH/3T3); conditions: 1 hour incubation, fluorescence microscope
Experimental: In order to determine if the nanoparticles (MB NPs) prepared in Example 1 would be accumulated in the cancer cell, 1×10^5 of each of cancer cells MDA-MB-231 (breast, mammary gland/human, Korean Cell Line Bank), MCF-7 (breast, mammary gland/human, Korean Cell Line Bank), PC-3 (prostate; grade 4; metastasis to bone/human, Korean Cell Line Bank), HeLa (cervix/human, Korean Cell Line Bank), and HT-29 (Colon/human, Korean Cell Line Bank) was respectively dispersed in 2 mL of cell culture solution [DMEM (WELGENE) culture solution was used for the HeLa cell, and RPMI1640 (WELGENE) culture solution was used for the other cells]. And then the solution was put into a dish for cell culture (35 mm, glass-bottomed dish), and cultured in a culture chamber (5% CO2, 37° C.). After 24 hours, the dish was washed with 2 mL of DPBS (WELGENE), and 1.8 mL of the culture solution and 0.2 mL of the nanoparticles were added thereto, and the resulting dish was stored in a culture chamber (5% CO2, 37° C.) for 1 hour. The stored cell culture dish was washed with 2 mL of DPBS, cells were fixed with 1 mL of a cell fixation solution, and then fluorescence images were observed by fluorescence microscope (LEICA DMI3000B equipped with a Nuance FX multispectral imaging system, CRI). […]

[2] = tested on: cancer cells (MDA-MB-231, MCF-7, PC-3, HeLa, HT-29) and normal cells (MRC-5, Clone-1-5c-4, NIH3T3); experiment: Cytotoxicity (Dark) by MTT analysis; type: cell-based, human; mouse (NIH/3T3); conditions: 1 hour incubation, no laser
Experimental: In order to confirm of the cytotoxicity of MB NPs, 200 μL of a cell culture solution in which 1×10^4 ea of cells were dispersed was put into a dish for cell culture (96-well plate) and cultured (5% CO2, 37° C.) in an artificial culture chamber for 24 hours, and the dish was washed with DPBS, and then a mixture solution of 20 μL of MB NPs and 180 μL of a cell culture solution was added to the cell, and the resulting culture solution was cultured in the same artificial culture chamber for 1 hour. After the dish was washed with DPBS, the number of each cell was observed by the MTT analysis method.
The experiment was performed on cancer cells and normal cells, and MDA-MB-231 cell, MCF-7 cell, PC-3 cell, HeLa cell, and HT-29 cell are illustrated in FIGS. 7a, 7b, 7c, 7d, and 7e, respectively, and normal cells MRC-5, Clone-1-5c-4, and NIH3T3 are illustrated in FIGS. 8a to 8c, respectively.

## CN(C)c1ccc2nc3ccc(=[N+](C)C)cc-3sc2c1 [MB Sol., methylene blue]
[1]
  infiltration capacity into cell: not found in the cell
[2]
  cytotoxicity of the material (Dark): no cytotoxicity of the material itself
